Test system: STC-1 cells
Experiment: CCK release by STC-1 cells (competitive enzyme assay of the cell-conditioned medium)
Assay type: cell-based, mouse
Conditions: positive control, 100 nM PMA in 2 mg/ml BSA, 4 hour
Method: The protein hydrolysates were added to the media of STC-1 cells at a protein concentration of approximately 2 mg/mL, and the enzyme controls were added at equivalent dilutions of the control reaction mixture (which included the enzyme(s) in the absence of protein substrate). Plotted is the % CCK released into the media of STC-1 cells stimulated by the different protein hydrolysates generated by the pepsin or pepsin and pancreatin enzymes, compared to the control 100 nM PMA (which was set as 100%). Cell culture media alone and 2 mg/mL bovine serum albumin (BSA) were used as negative background controls. The PMA control consisted of 100 nM PMA in cell culture media containing 2 mg/ml BSA. % CCK released into the cell culture media was calculated as follows: […]
It is known that protein, in general, stimulates the release of CCK by enteroendocrine cells in the intestinal track of animals, including humans (Liddle, R. A., et al., (1986) Proteins But Not Amino Acids, Carbohydrates, or Fats Stimulate Cholecystokinin Secretion in the Rat. Am. J. Physiol. 251 (Gastrointest. Liver Physiol. 14): G243-G248). […] Degree of hydrolysis was determined by the reaction of primary amine groups with o-phthalaldehyde (OPA) vs. total amount of primary amine present in sample after acid hydrolysis (110° C. for 24 hours) (known as, the “OPA method”). […]

CCCCCCCCCCCCCC(=O)O[C@@H]1[C@@H](C)[C@@]2(O)[C@@H](C=C(CO)C[C@]3(O)C(=O)C(C)=C[C@@H]23)[C@@H]2C(C)(C)[C@]12OC(C)=O [PMA, phorbol 12-myristate-13-acetate]
CCK Release (ng/ml) mean ± sem: 0.171 ± 0.003 ng/mL
